Assay results reported in patent US20070086981A1, “Delivery peptides, their constructs with active agents and use” (priority 2003, published 2007).

System: human skin
Assay: Clinical study with a cream for skincare against skin aging
Format: in vivo, humans
Details: comparison of skin creams in the clinical study
Protocol: A cream base was used having the following ingredients:
The huSOD-peptide OA 05 conjugate was produced as described in example 4.
The following compositions of skin cream were prepared for use in the clinical study:
The properties were evaluated according the following criteria: “firmness of the skin”, “reduction of superficial wrinkles”, “reduction of deeper wrinkles”, “skin regeneration”, and “appearance of young skin”. The questionnaire was filled out at least 4 weeks after starting of using the skin cream.
The application of the skin cream was done in all Groups (I to V) over 6 weeks twice a day, creaming the face and the neck in the morning and in the evening without using any other skin products. No application was discontinued in any group. The observation period (counted from the first application) was minimum 4 weeks and maximum 10 weeks.
Furthermore, a total evaluation of the different applied skin creams on a score ranging from 1 (excellent) to 6 (very poor) was performed.

Row | Substance | beneficial effect on aging parameters in the human skin
1 | KKKQKRKK (Cargo Peptide) [OA 05] | significantly increases the beneficial effect of SOD
2 | SOD: Super-Oxid- Dismutase (SOD), a free radical catcher; huSOD from Jena Biosciences | has a beneficial effect on different aging parameters in the human skin
